# Target: T1, Solute carrier organic anion transporter family member 1A4 (Rattus norvegicus, UniProt O35913)
# T1 sequence (O35913 whole entry): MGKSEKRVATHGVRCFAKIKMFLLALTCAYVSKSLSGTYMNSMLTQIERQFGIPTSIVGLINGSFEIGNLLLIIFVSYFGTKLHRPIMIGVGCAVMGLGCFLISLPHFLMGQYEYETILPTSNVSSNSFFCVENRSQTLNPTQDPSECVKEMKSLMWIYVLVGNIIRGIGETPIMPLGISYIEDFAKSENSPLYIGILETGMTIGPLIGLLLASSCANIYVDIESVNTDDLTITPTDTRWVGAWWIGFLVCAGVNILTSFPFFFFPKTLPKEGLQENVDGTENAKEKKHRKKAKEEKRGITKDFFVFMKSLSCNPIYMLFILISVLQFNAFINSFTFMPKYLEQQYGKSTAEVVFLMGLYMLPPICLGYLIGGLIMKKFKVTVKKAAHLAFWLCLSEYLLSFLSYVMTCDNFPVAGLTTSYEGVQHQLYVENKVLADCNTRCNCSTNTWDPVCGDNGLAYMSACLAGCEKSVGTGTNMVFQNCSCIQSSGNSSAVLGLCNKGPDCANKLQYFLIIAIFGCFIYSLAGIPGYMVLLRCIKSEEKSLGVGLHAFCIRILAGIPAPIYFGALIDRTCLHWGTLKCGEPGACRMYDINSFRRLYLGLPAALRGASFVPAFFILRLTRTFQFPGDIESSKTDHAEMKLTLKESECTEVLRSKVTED
# Test: TP_TRANSPORTER: inhibition of Rocuronium uptake in Xenopus laevis oocytes
# Assay type: functional, cell-based
# Conditions: oocyte
row,Activity,Structure (SMILES)
1,is not an inhibitor [-],CC[N+](C)(CC)CCNC(=O)c1ccc(N=[N+]=[N-])cc1.[I-] [AZIDOPROCAINAMIDE METHOIODIDE]
2,is not an inhibitor [-],CCCC[N+](C)(CCCC)CCCC [TRIBUTYLMETHYLAMMONIUM]

# Source: ChEMBL document CHEMBL2074543, “Interactions of cationic drugs and cardiac glycosides at the hepatic uptake level: studies in the rat in vivo, isolated perfused rat liver, isolated rat hepatocytes and oocytes expressing oatp2” (Arch Pharm Res, 2002)
